Values of other authors as cited in patent publication US20210106592A1, “METHODS AND COMPOSITIONS FOR THE TREATMENT OF TRAUMATIC BRAIN INJURY (TBI) AND RELATED DISORDERS” (priority 2017, published 2021).

Legend:
sigma = conditions: recent basic research
cholinergic receptors = conditions: in vitro; last in the decreasing order H1, H2 > 5-HT2 > D2, D1 > a1 > cholinergic
[1] = target: serotonin (5-HT) reuptake (Homo sapiens, UniProt P31645)
noradrenaline reuptake = noradrenaline reuptake (Homo sapiens, UniProt P23975)
[2] = system: generalized anxiety disorders; conditions: patients with generalized anxiety disorders; versus placebo and alprazolam

serotonin (5-HT) reuptake, sequence (P31645 whole entry): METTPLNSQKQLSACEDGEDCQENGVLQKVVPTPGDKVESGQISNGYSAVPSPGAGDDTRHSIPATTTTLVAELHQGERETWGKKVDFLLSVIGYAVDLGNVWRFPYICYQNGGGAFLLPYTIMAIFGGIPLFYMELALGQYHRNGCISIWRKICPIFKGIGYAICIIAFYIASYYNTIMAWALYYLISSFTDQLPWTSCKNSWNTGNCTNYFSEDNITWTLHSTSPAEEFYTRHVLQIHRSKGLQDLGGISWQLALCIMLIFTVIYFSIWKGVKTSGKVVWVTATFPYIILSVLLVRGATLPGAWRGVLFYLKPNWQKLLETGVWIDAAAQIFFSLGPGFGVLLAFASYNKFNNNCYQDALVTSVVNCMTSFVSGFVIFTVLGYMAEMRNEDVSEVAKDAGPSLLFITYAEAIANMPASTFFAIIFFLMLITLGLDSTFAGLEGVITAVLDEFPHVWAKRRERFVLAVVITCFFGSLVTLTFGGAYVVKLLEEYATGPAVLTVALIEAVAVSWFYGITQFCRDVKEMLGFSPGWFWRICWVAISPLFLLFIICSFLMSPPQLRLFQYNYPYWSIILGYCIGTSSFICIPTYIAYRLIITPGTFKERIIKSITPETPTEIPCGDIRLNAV
noradrenaline reuptake, sequence (P23975 whole entry): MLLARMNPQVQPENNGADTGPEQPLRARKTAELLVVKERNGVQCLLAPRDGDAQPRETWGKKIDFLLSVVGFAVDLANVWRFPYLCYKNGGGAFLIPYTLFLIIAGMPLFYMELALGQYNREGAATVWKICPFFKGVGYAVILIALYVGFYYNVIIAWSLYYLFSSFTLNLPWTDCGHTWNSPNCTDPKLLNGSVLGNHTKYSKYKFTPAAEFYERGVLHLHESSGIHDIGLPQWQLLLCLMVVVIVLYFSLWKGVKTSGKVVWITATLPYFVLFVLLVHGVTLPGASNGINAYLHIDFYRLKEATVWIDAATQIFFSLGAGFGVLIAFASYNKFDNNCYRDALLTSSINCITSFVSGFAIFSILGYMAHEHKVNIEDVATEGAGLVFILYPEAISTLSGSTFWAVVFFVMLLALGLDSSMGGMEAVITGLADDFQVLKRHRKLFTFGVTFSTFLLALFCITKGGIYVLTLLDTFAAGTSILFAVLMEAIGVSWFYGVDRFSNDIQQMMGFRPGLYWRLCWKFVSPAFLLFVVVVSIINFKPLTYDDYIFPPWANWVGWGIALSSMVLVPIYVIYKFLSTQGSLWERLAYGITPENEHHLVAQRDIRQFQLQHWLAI

blockade of cholinergic receptors (cholinergic receptors): very weakly
reuptake inhibiting properties for serotonin (5-HT) [1]: without reuptake inhibiting properties
reuptake inhibiting properties for noradrenaline (noradrenaline reuptake): without reuptake inhibiting properties
Structure (SMILES): Cl.Cl.OCCN1CCN(CCCN2c3ccccc3C=Cc3ccccc32)CC1 [opipramol, 4-[3-(5H-dibenz[b,f]-azepine-5-yl)-propyl]-1-piperazine-ethanol dihydrochloride]
sigma ligand strength (sigma): strong sigma ligand
anxiolytic efficacy [2]: superiority over placebo and similar efficacy to alprazolam
